Test results published in PubChem BioAssay (NCI).
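Grown in 96-well plates, cells were treated for 48 hours with each compound at five concentrations. Insufficient inhibition: endpoint recorded as highest concentration tested. GI50 marks 50% less growth. TGI: concentration producing complete growth inhibition.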

How the values were obtained:
Experiment in all cases: NCI tumour cell line growth inhibition, 48 h
[1] = test system: RXF 393 renal
[2] = test system: HCT-116 colon
[3] = test system: A549 NSCLC
[4] = test system: SF-268 CNS
[5] = test system: COLO 205 colon
[6] = test system: NCI-H226 lung
[7] = test system: OVCAR-5 ovarian
[8] = test system: HCC-2998 colon
[9] = test system: SK-MEL-2 melanoma

Structure (SMILES)	TGI [1] [µM]	TGI [2] [µM]	TGI [3] [µM]	TGI [4] [µM]	TGI [5] [µM]	TGI [6] [µM]	TGI [7] [µM]	TGI [8] [µM]	TGI [9] [µM]	GI50 [1] [µM]	GI50 [2] [µM]	GI50 [3] [µM]	GI50 [4] [µM]	GI50 [5] [µM]	GI50 [6] [µM]	GI50 [8] [µM]	GI50 [9] [µM]
CC(=O)OCCOCNC(=S)N/N=C/c1ccc2ccccc2n1	> 100	> 100	> 100	> 100	46.6	> 100	65.5	> 100	> 100								
[N-]=[N+]=Nc1ccc(CCN2CCN(c3cccc(C(F)(F)F)c3)CC2)cc1I	> 100	> 100	> 100	> 100	> 100	> 100	> 100		> 100								
C[C@@H](C1CCC2C3C(=CC(=O)[C@@]21C)[C@H](C)[C@]1(CCC(=O)O1)C1OC31)[C@H]1C[C@]2(C)O[C@@](C)(O1)OC2(C)C (some centres undefined)	> 100	> 100	> 100	> 100	> 100												
Clc1ccccc1C(n1ncc2ccccc21)n1ncc2ccccc21	> 100	> 100		> 100		> 100	> 100	> 100	> 100								
O=C1c2ccccc2C(=O)C2C1C1C(=O)c3ccccc3C(=O)C21 (centres undefined)	> 100		> 100	> 100	> 100		> 100	> 100	> 100								
Cc1nc2ccccc2c(=O)n1/N=C(\N=Nc1cc(Cl)ccc1Cl)c1cccc(-c2ccco2)c1	> 100	> 100	> 100	> 100	> 100	> 100	> 100	> 100	> 100								
O=S(=O)(Nc1cc(Br)c(O)c2ccccc12)c1ccc(F)cc1	14.1	6.44	26.7	12.1	29.5	38.9		33.4	16.2	3.69	2.33	8.3	3.2	10.7	18.3	18.4	3.42
CC1(C)C(c2ccccc2)=NN(O)c2ccccc21	> 100	> 100	> 100	> 100	> 100	> 100	> 100	> 100	> 100								
Cc1cc(=O)n(-c2ccccc2)c(=O)o1	> 100	> 100	> 100	> 100	> 100	> 100	> 100	> 100	> 100								
CC(C)N(C(=O)C12C3C4C5C3C1(C(=O)N(C(C)C)C(C)C)C5(C#N)C42)C(C)C (centres undefined)		> 100	> 100	> 100	> 100	> 100	> 100	> 100	> 100								
O=C(c1ccccc1)C(c1ccccc1)C1(O)C(=O)Nc2ccccc21 (centres undefined)	> 100	> 100	> 100	> 100	> 100	> 100	> 100	> 100	> 100								
CC1=CCC2(C#N)CCC1C2O (centres undefined)	> 100	> 100	> 100	> 100	> 100	> 100	> 100	> 100	> 100								
N=CCCN(CCC=N)c1ccc(/C=C2\CN(NC(=O)c3ccc(Cl)cc3)C(c3ccccc3)=N2)cc1		> 100	> 100	> 100	> 100	> 100	> 100	> 100	> 100								
O=C(O)c1c[nH]c2c(=O)[nH]cnc12	> 100	> 100	> 100	> 100	> 100		> 100	> 100	> 100								
O=C(Cc1nc2ccccc2c(=O)n1-c1c(Cl)cccc1Cl)c1ccncc1	65.7	39.7	46.9	> 100	33.6	> 10		44.2	46.3								
CC1(C)C(c2ccccc2)C12CCC1(C2=O)C(c2ccccc2)C1(C)C (centres undefined)	45.7	33.6	75.7	97.7	33.6	36.3	81.8	34.4	37								
CNC(=S)N/N=C1\CC(c2ccccc2)Oc2ccccc21 (centres undefined)	> 100	> 100	> 100	> 100	> 100	> 100	> 100	> 100	> 100								
C=CCC1C(=O)C(C(=O)OC)N2CCc3c([nH]c4ccccc34)C12 (centres undefined)	> 100	> 100	> 100	> 100	> 100		> 100	> 100	> 100								

Structure (SMILES)	TGI [1] [µM]	TGI [2] [µM]	TGI [3] [µM]	TGI [4] [µM]	TGI [5] [µM]	TGI [6] [µM]	TGI [7] [µM]	TGI [8] [µM]	TGI [9] [µM]	GI50 [1] [µM]	GI50 [2] [µM]	GI50 [3] [µM]	GI50 [4] [µM]	GI50 [5] [µM]	GI50 [6] [µM]	GI50 [8] [µM]	GI50 [9] [µM]
N#CCCN(CCC#N)C(=O)c1cccc(C(=O)N(CCC#N)CCC#N)c1	9.76	99.4	> 100	> 100	> 100		> 100	> 100	> 100								
O=C(C/C(=N\NC(=O)C[n+]1ccccc1)C(=O)Nc1nc2ccc([N+](=O)[O-])cc2s1)CC(c1ccccc1)c1c(O)c2ccccc2oc1=O (centres undefined)	> 100	> 100	> 100	> 100	> 100		> 100	> 100	> 100								
NC(N)=NS(=O)(=O)c1ccc(Nc2c3ccccc3nc3c(C(=O)N4CCN(CCO)CC4)cccc23)cc1	> 100	> 100	> 100	> 100	> 100	> 100	> 100	> 100	> 100								
Cc1ccc(NC(=O)CC/C(CC(=O)C(C)(C)C)=N/NC(=O)C(N)=O)cc1C	> 100	> 100	> 100	> 100	> 100	> 100	> 100	> 100	> 100								
O=C(O)C1CCc2nnc(-c3ccccc3)n21 (centres undefined)	> 100	> 100	> 100	> 100	> 100	> 100		> 100	> 100								
COc1c(C2=NC(C(C)C)CO2)ccc2ccccc12 (centres undefined)	86.8		> 100	> 100	> 100	> 100	> 100	> 100	> 100								
CC1(C)CCC[C@@]2(C)C1C[C@H](O)[C@@]1(C)O[C@@](C)([C@H](O)CO)CCC21 (some centres undefined)		> 100	> 100	> 100	56.5	> 100	> 100	> 100	60								
CCC1=C(C)/C(=C/c2[nH]c(C(Br)Br)c(CC)c2C)N=C1C(Br)Br	78.9	> 100	> 100	> 100	21	90.1	> 100	52.9	> 100								
CC1(C)OC(=O)[C@@](C)([C@H](O)c2ccccc2)O1	> 100	> 100	> 100	> 100		> 100		> 100	> 100								
CN1C(OCc2ccccc2)c2c(ccc3c2OCO3)C2C=Cc3cc4c(cc3C21)OCO4 (centres undefined)	2.31	1.44		1.58	2.2	2.8	2.86	2.99	2.92								
O=C1c2cccc3cc([N+](=O)[O-])cc(c23)C(=O)N1NC1=NCCN1	> 100	> 100	> 100	> 100	> 100	> 100	> 100	> 100	> 100								
Nc1ncnc2c1ncn2C1OC(CSC(F)(F)F)C(O)C1O (centres undefined)		> 100	> 100	> 100	> 100	> 100	> 100	> 100	> 100								
COc1cc(=O)oc(/C=C/C=O)c1C	34.8	17.4	> 100	28.2	31.6	90.9	> 100	32.2									
Cc1ccc(C2CC(c3ccc([N+](=O)[O-])cc3)=Nc3ccccc3S2)cc1 (centres undefined)	38.9		> 100	> 100	> 100	> 100	> 100	40.3	95								
O=[N+]([O-])c1cc([N+](=O)[O-])c(Cl)c(Cl)c1Cl	1.86	0.743	13.9	3.92	2.03			8.32	3.42	0.636	0.24	3.16	1.73	0.616		2.84	1.76
COC(=O)C1CC(=O)CCC1c1ccccc1 (centres undefined)		> 100	> 100	> 100	> 100	> 100	> 100	> 100	> 100								
C=C[C@@]1(C)CCC2(O)C(CCC3C2(C)CCC[C@@]3(C)COC(=O)CC(=O)OC)C1 (some centres undefined)	61.5	32.3	35.9	55.3		55.9	57.8	> 100									
